Reference: patent publication US8003613B2, “Methods and compositions for inducing apoptosis” (University of Florida Research Foundation, Inc., priority 2003, dated 2011)
Like-named read-outs stand apart in the source and are kept apart here. Where no end group is shown, it is not given here.

What was measured:
VEGFR-3 = conditions: no method given; cited from earlier work
[1] = test system: BT474, BT20, and MCF7 breast cancer cells; experiment: Displacement of FAK from focal adhesions, rounding and detachment in breast cancer cells; type: cell-based, human; conditions: peptide coupled to TAT-FITC
Procedure: (§1) Visualization and penetration of Peptide-35 into breast cancer cells was accomplished by coupling the peptide to FITC and using a TAT penetration sequence. Apoptosis was measured using the Elisa Plus cell death detection assay after cells were treated with drug for 24 hours. Apoptosis was further confirmed by the Hoechst assay.
(§2) Peptide-35 and AV3 (SEQ ID NO: 3) were coupled to a TAT sequence (YGRKKRRQRRR; SEQ ID NO: 5) to allow cellular penetration. Peptide-35 was also coupled to FITC for visualization of the peptide inside cells. Anti-FAK, anti-GST, anti-VEGFR-3, and anti-tubulin antibodies were used for immunoprecipitation and western blotting.
(§3) Cells were plated onto coverslips in six-well culture plates in medium for 24 hours and stained with anti-FAK and anti-VEGFR-3 antibodies and visualized for co-localization.

[2] = test system: MCF10A normal breast cells; experiment: Detachment assay, MCF10A; type: cell-based, human; conditions: 6 hours treatment
Procedure: (§4) Detached and attached cells after drug treatment for 6 hours cells were counted by hemocytometer. The percent detachment was calculated by dividing the number of detached cells by the total number of cells.

cancer cells = experiment: Apoptosis in cancer cell lines; type: cell-based, human; conditions: different cancer cell lines
Procedure: as §1
(§5) Cells were treated with drug for 24 hours and then harvested. Hoechst 33342 was added and the specimens were mounted on glass coverslips. The slides were viewed under the microscope for apoptotic nuclei. The percent apoptosis was calculated by dividing the number of apoptotic cells by the total number of cells (300).

FAK-CD = target: T1, FAK-CD (Homo sapiens, UniProt Q05397); experiment: Phage display / phage overlay binding to FAK-CD; conditions: Western blot/phage overlay
T1 construct: made in house
T1 sequence (Q05397 693-1052 limits assumed): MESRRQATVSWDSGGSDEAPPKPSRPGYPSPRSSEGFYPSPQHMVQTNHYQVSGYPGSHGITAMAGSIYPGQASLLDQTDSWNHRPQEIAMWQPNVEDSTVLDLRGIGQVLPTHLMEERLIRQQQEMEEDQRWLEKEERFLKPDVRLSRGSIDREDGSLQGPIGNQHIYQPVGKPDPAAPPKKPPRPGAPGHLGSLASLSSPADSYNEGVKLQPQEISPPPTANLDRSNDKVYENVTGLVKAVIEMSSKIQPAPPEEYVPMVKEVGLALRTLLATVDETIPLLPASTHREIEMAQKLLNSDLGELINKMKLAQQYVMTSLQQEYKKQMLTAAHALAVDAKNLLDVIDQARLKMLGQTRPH
Description: Peptides that bind FAK were isolated by phage display techniques. Baculovirus FAK-CD was the target protein and peptides were isolated from a phage library (New England Biolabs). After three rounds of panning, recovered phages were sequenced to identify potential peptides that bind FAK. Western-blot analysis and phage overlay were used to confirm the binding of these peptides to FAK. Peptide binding partners to FAK-CD were isolated by phage display. Baculoviral FAK-CD was used as a target and was coated to a plate and peptides were isolated from a phage library containing different 12-amino acids (New England Biolabs). After three rounds of panning, recovered phages were sequenced to identify potential peptides that bind FAK. […] Pure protein (4 μg) with loading buffer was boiled for 10 min and resolved by SDS-PAGE. Proteins were transferred to polyvinylidene difluoride membrane, probed with phage-35, and detected by chemiluminescence (Perkin-Elmer Life Sciences, Inc.).

normal MCF10A cells = experiment: Displacement of FAK from focal adhesions, rounding and detachment in normal breast cells; type: cell-based, human; conditions: peptide coupled to TAT-FITC
Procedure: as §1, §2, §3

[3] = test system: BT474 breast cancer cells; experiment: Detachment assay, BT474; type: cell-based, human; conditions: 6 hours treatment
Procedure: as §4

[4] = test system: BT474 breast cancer cells; experiment: Apoptosis assay, BT474; type: cell-based, human; conditions: 24 hours treatment, confirmed by Hoechst assay
Procedure: as §1, §5

[5] = test system: MCF10A normal breast cells; experiment: Apoptosis assay, MCF10A; type: cell-based, human
Procedure: as §1, §5

IMR neuroblastoma cells [6] = experiment: Detachment assay, IMR neuroblastoma; type: cell-based; conditions: IMR neuroblastoma cells with high VEGFR-3; peptide conjugated with TAT
Procedure: as §4

IMR neuroblastoma cells [7] = experiment: Apoptosis assay, IMR neuroblastoma; type: cell-based; conditions: IMR neuroblastoma cells with high VEGFR-3; peptide conjugated with TAT
Procedure: as §5

[8] = test system: Mouse Fibroblast, FAK/FAK+; experiment: Detachment assay, mouse fibroblasts; type: cell-based; conditions: FAK+ compared with FAK-deficient
Procedure: BT474 cells were maintained in RPMI 1640 with 10% fetal bovine serum, 10 μg/ml insulin, and 2 mM L-glutamine. Mouse embryonic fibroblasts were maintained in DMEM with 10% FBS, Amphotericin B, and NEAA. HEK293 human embryonic kidney cells were maintained in DMEM with 10% FBS, and 2 mM L-glutamine. All cells were incubated at 37° C. in 5% CO2. Detached and attached cells after drug treatment for 6 hours cells were counted by hemocytometer. The percent detachment was calculated by dividing the number of detached cells by the total number of cells.

[9] = target: T2, chicken FAT, FAK C-terminal domain (Gallus gallus, UniProt Q00944); experiment: NMR analysis of peptide binding to FAT domain; conditions: preliminary NMR analysis
T2 sequence (Q00944 915-1046 limits assumed): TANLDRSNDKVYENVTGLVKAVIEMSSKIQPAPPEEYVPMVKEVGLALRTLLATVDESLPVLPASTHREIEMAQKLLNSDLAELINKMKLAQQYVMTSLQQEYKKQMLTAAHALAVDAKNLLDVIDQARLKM
Procedure: Structural analysis of VEGFR-3 peptide binding to the FAT domain of FAK is performed. Structural analysis is by nuclear magnetic resonance (NMR) spectroscopy. The solvent accessible area of the FAT-domain is predominantly hydrophilic with hydrophobic patches located on the helix 1-helix 4 face and the helix 2-helix 3 face. The hydrophobic patches may be involved in paxillin binding interactions. Results from these analyses indicate that NMR approaches will be successful in delineating detailed binding interactions between the inhibitor peptide and the FAT domain.
The site of peptide binding and is determined and specificity of binding is analyzed. Different scrambled peptides are synthesized to analyze the specificity of NMR assay. Different mutant peptides are synthesized to determine specific amino-acids involved in this interaction.

Compound: CC(C)(C)n1nc(-c2ccc(Cl)cc2)c2c(N)ncnc21 [PP2]
- inhibition of VEGFR-3 phosphorylation (VEGFR-3): inhibited

Compound: HPWQWTISWPQW (listed as Homo sapiens) [scrambled peptide 35, control peptide, scrambled peptide 35, reference compound]
- displacement of FAK from focal adhesions, degradation of FAK, rounding, detachment [1]: not
- detachment [2]: minimal detachment
- apoptosis (with detachment / loss of focal adhesions) in cancer cells (cancer cells): not observed

Compound: WHWQWTPWSIQP (also: TAT and FITC conjugated; listed as Homo sapiens) [Peptide-35, coupled to TAT (and FITC) for cell penetration]
- binding to FAK-CD (C-terminal part of FAK) (FAK-CD): binds to specific sequences of FAK-CD
- binding to FAK-CD (C-terminal part of FAK) (FAK-CD; listed as peptide 35): binds to the C-terminal part of FAK and FAT domain
- displacement of FAK from focal adhesions, degradation of FAK, rounding, detachment [1]: cause displacement of FAK from focal adhesions, degradation of FAK, rounding, and detachment
- displacement of FAK from focal adhesions, degradation of FAK, rounding, detachment ([1]; listed as peptide-35): caused displacement of FAK from focal adhesions
- displacement of FAK from focal adhesions, degradation of FAK, rounding, detachment (normal MCF10A cells): not in normal MCF10A cells
- displacement of FAK from focal adhesions, degradation of FAK, rounding, detachment (normal MCF10A cells; listed as peptide-35): not in normal MCF10A breast cells
- detachment [3]: caused detachment
- detachment ([3]; listed as peptide-35): higher level of detachment
- detachment [2]: not in MCF10A normal breast cells
- detachment ([2]; listed as peptide-35): minimal detachment
- apoptosis [4]: caused detachment and apoptosis
- apoptosis ([4]; listed as peptide-35): higher level of apoptosis
- apoptosis [5]: not in MCF10A normal breast cells
- apoptosis ([5]; listed as peptide 35): not observed
- apoptosis (with detachment / loss of focal adhesions) in cancer cells (cancer cells): caused loss of focal adhesions and apoptosis
- apoptosis (with detachment / loss of focal adhesions) in cancer cells (cancer cells; listed as peptide 35): induces detachment and apoptosis

Compound: WHWRPWTPCKMF (also: TAT peptide conjugated; listed as Homo sapiens) [AV3, synthesized peptide homologous to twelve amino-acids of VEGFR-3; conjugated with TAT peptide for penetration into cells]
- apoptosis [5]: not observed
- detachment (IMR neuroblastoma cells [6]): increased detachment
- apoptosis (IMR neuroblastoma cells [7]): increased detachment and apoptosis
- detachment [8]: Mouse Fibroblast, FAK/FAK+. Greater
- binding to FAT domain by NMR [9]: detected binding
- apoptosis (with detachment / loss of focal adhesions) in cancer cells (cancer cells): induces detachment and apoptosis
- apoptosis (with detachment / loss of focal adhesions) in cancer cells (cancer cells; listed as VEGFR-3 (AV-3) peptide): caused apoptosis in cancer cells similar to peptide 35
